Test results as given in patent US12673975B2, “Cyclic peptide, cell scaffold material, cell separating material, and medium” (FUJIFILM Corporation, priority 2019, dated 2026).
pKd: −log10 of the molar value. Like-named read-outs stand apart in the source and are kept apart here. Starred links: 1 amine or outer side, 2 acyl side, 3 side chain; linkers in the order of their positions; H or OH if unused. Positions of bridges follow the written chain, without caps; N, C: chain ends. Non-standard residues stand in square brackets, D forms with d. Residues, ends and D or L forms follow the SMILES beside them. hCys = N[C@@H](CCS)C(=O)O; Orn = NCCC[C@H](N)C(=O)O; Dab = NCC[C@H](N)C(=O)O; Dap = NC[C@H](N)C(=O)O; X1 = O=C(C[*:2])[*:1]; X2 = O=C(C[*:1])[*:2]

Assays:
human integrin αvβ5 = human integrin αvβ5 (Homo sapiens, UniProt P06756+P18084); test: Evaluation of integrin binding property (surface plasmon resonance, Biacore 3000, immobilized cyclic peptide)
Outline: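 Human αvβ5 (30-1,000 nM) flowed for 10 min at 25 °C over immobilized cyclic peptide in 20 mM HEPES, 150 mM NaCl, 5 mM MgCl2, pH 7.4, followed by 30 min running buffer and 0.5 M EDTA regeneration. Dissociation constant from peptide minus unimmobilized channel, scored into standard grades.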

[1] = Evaluation of molecule stability (alkali treatment, residual rate by LC/MS); type: physicochemical; conditions: for Stability (molecule stability, residual rate of the cyclic peptide rank): alkali treatment, residual rate by LC/MS; for Performance evaluation: Stability (residual rate of cyclic peptide after alkali treatment): 500 μM peptide aqueous solution plus equivalent of 1 M sodium hydroxide, 15° C., 3 hours, LC/MS peak area
Outline: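 Stability read as percent of summed LC/MS peak area remaining versus untreated peptide (C18, 45 °C, 10 mM ammonium formate pH 3, ESI positive/negative). Treatment: 500 μM peptide in water plus an equivalent of 1 M NaOH, 15 °C for 3 hours.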

[2] = surface plasmon resonance, immobilized cyclic peptide, human integrin αvβ5, read-out: Binding activity (integrin binding property, dissociation constant rank)
[3] = SPR, 25° C., HEPES buffer with 5 mM magnesium chloride, integrin 30-1,000 nM, read-out: Performance evaluation: Binding activity (dissociation constant between the cyclic peptide and human integrin αvβ5)

Sequence of human integrin αvβ5 (P06756 31-1048): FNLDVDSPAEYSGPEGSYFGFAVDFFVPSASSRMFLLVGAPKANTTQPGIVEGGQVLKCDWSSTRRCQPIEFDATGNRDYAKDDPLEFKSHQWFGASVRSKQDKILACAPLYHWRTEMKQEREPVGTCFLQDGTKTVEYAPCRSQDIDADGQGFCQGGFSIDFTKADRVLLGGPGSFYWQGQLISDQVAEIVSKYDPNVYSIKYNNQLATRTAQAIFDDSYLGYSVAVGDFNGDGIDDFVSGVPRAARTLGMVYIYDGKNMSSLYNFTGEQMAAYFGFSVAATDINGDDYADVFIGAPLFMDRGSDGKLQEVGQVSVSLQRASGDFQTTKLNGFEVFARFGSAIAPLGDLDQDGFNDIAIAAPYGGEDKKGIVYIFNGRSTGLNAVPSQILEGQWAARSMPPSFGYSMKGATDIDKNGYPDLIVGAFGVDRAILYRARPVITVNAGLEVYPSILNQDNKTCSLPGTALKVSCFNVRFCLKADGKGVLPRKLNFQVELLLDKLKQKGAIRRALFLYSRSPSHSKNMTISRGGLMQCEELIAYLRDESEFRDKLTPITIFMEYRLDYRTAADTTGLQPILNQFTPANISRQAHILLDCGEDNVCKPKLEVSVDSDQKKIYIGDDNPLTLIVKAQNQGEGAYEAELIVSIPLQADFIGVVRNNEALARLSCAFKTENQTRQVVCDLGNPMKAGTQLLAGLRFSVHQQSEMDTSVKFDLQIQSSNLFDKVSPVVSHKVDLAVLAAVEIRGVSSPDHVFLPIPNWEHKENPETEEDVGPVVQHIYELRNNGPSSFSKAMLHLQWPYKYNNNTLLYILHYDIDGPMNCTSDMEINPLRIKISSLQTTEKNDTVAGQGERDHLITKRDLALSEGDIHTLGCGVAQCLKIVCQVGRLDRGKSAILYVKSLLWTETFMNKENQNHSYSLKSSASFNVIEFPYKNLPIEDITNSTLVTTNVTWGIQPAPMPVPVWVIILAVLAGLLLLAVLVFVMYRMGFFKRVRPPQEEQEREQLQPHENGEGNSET
Sequence of human integrin αvβ5 (P18084 24-799): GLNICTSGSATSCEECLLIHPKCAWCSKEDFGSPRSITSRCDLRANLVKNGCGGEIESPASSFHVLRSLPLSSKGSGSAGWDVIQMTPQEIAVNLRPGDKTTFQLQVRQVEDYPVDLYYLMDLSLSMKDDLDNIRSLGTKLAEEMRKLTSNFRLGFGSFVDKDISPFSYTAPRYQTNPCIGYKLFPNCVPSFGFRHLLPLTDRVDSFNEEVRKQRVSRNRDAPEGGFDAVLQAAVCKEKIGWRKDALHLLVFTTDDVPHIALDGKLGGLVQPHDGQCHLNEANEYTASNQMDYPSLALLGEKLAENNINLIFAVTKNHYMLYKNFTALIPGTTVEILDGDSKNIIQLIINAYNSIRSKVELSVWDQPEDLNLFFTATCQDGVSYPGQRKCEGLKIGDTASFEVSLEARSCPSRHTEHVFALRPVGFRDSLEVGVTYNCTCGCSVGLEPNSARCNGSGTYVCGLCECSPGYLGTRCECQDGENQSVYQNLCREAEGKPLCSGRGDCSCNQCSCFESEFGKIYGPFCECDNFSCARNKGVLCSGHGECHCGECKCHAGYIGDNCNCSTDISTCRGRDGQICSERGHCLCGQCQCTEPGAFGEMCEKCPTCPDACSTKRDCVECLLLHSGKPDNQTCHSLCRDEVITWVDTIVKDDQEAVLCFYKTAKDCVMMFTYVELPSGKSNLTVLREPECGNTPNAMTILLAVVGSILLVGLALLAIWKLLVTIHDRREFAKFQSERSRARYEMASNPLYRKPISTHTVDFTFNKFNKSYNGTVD

Row | SMILES | pKd (human integrin αvβ5; [2]) | Stability (molecule stability, residual rate of the cyclic peptide rank) [1] | molecule stability (in words) ([1]; summary of Table 9 to Table 13) | pKd (human integrin αvβ5; [3]) | Performance evaluation: Stability (residual rate of cyclic peptide after alkali treatment) [1]
1 | CC(C)[C@@H]1NC(=O)[C@@H](NC(=O)[C@H](C)NC(=O)[C@H](CCCCN)NC(=O)[C@H](CCCCN)NC(=O)[C@@H](N)CCCCN)CCSCC(=O)NCCCC[C@@H](C(=O)N[C@@H](C)C(=O)O)NC(=O)[C@H](C)NC(=O)[C@H](Cc2ccccc2)NC(=O)[C@H]([C@@H](C)O)NC(=O)[C@H](CC(=O)O)NC(=O)CNC(=O)[C@H](CCCNC(=N)N)NC(=O)[C@@H]2CCCN2C1=O [Cyclic peptide 121, KKKA-(Hcy)-VPRGDTFA(Lys(acetyl))A] (H-KKKA[hCys]VPRGDTFAKA-OH; linker 5-14 via X2) | > 7.30 | A (The residual rate of the cyclic peptide is 70% or more.) | – | – | –
2 | N=C(N)NCCC[C@@H]1NC(=O)[C@H](Cc2ccc(O)cc2)NC(=O)[C@H](CC(N)=O)NC(=O)[C@H](CC(=O)O)NC(=O)CNC(=O)[C@H](CCCNC(=N)N)NC(=O)[C@@H]2CCCN2C(=O)[C@H](CCC(=O)O)NC(=O)[C@@H](NC(=O)[C@H](CCCCN)NC(=O)[C@H](CCCCN)NC(=O)[C@@H](N)CCCCN)CNC(=O)CSC[C@@H](C(=O)O)NC1=O [Cyclic peptide 167, KKK(Dap(acetyl))EPRGDNYR(C), reference compound] (H-KKK[Dap]EPRGDNYRC-OH; linker 4-13 via X1) | 7.00 to 7.30 | D (The residual rate of the cyclic peptide is less than 30%.) | a practically sufficient molecule stability could be obtained | – | –
3 | CC(C)C[C@@H]1NC(=O)[C@@H](NC(=O)CNC(=O)[C@H](CCCCN)NC(=O)[C@H](CCCCN)NC(=O)[C@@H](N)CCCCN)CCSCC(=O)NCC[C@@H](C(=O)N[C@@H](C)C(=O)O)NC(=O)[C@H](CCCNC(=N)N)NC(=O)[C@H](Cc2ccccc2)NC(=O)[C@H](CO)NC(=O)[C@H](CC(=O)O)NC(=O)CNC(=O)[C@H](CCCNC(=N)N)NC(=O)[C@@H]2CCCN2C1=O [Cyclic peptide 28, KKKG-(Hcy)-LPRGDSFR(Dab(acetyl))A] (H-KKKG[hCys]LPRGDSFR[Dab]A-OH; linker 5-14 via X2) | – | – | – | 7.00 to 7.30 | A (The residual rate of the cyclic peptide is 70% or more.)
4 | C[C@H](NC(=O)[C@H](CCCCN)NC(=O)[C@H](CCCCN)NC(=O)[C@@H](N)CCCCN)C(=O)N[C@H]1CCSCC(=O)NCC[C@@H](C(=O)N[C@@H](CC(=O)O)C(=O)O)NC(=O)[C@H](CCCNC(=N)N)NC(=O)[C@H](Cc2ccc(O)cc2)NC(=O)[C@H](CC(N)=O)NC(=O)[C@H](CC(=O)O)NC(=O)CNC(=O)[C@H](CCCNC(=N)N)NC(=O)[C@@H]2CCCN2C(=O)[C@H](Cc2ccc(O)cc2)NC1=O [Cyclic peptide 32, KKKA-(Hcy)-YPRGDNYR(Dab(acetyl))D] (H-KKKA[hCys]YPRGDNYR[Dab]D-OH; linker 5-14 via X2) | – | – | – | > 7.30 | A (The residual rate of the cyclic peptide is 70% or more.)
5 | CC[C@H](C)[C@@H]1NC(=O)[C@@H](NC(=O)[C@H](C)NC(=O)[C@H](CCCCN)NC(=O)[C@H](CCCCN)NC(=O)[C@@H](N)CCCCN)CCSCC(=O)NCC[C@@H](C(=O)N[C@@H](C)C(=O)O)NC(=O)[C@H](CCCNC(=N)N)NC(=O)[C@H](Cc2ccccc2)NC(=O)[C@H](C)NC(=O)[C@H](CC(=O)O)NC(=O)CNC(=O)[C@H](CCCNC(=N)N)NC(=O)[C@@H]2CCCN2C1=O [Cyclic peptide 79, KKKA-(Hcy)-IPRGDAFR(Dab(acetyl))A] (H-KKKA[hCys]IPRGDAFR[Dab]A-OH; linker 5-14 via X2) | – | – | – | 7.00 to 7.30 | A (The residual rate of the cyclic peptide is 70% or more.)
6 | C[C@H](NC(=O)[C@@H]1CCNC(=O)CSCC[C@H](NC(=O)[C@H](C)NC(=O)[C@H](CCCCN)NC(=O)[C@H](CCCCN)NC(=O)[C@@H](N)CCCCN)C(=O)N[C@@H]([C@@H](C)O)C(=O)N2CCC[C@H]2C(=O)N[C@@H](CCCNC(=N)N)C(=O)NCC(=O)N[C@@H](CC(=O)O)C(=O)N[C@@H]([C@@H](C)O)C(=O)N[C@@H](Cc2ccccc2)C(=O)N[C@@H](CCCNC(=N)N)C(=O)N1)C(=O)O [Cyclic peptide 75, KKKA-(Hcy)-TPRGDTFR(Dab(acetyl))A] (H-KKKA[hCys]TPRGDTFR[Dab]A-OH; linker 5-14 via X2) | – | – | – | > 7.30 | A (The residual rate of the cyclic peptide is 70% or more.)
7 | CC(C)[C@@H]1NC(=O)[C@@H](NC(=O)[C@H](CCCCN)NC(=O)[C@H](CCCCN)NC(=O)[C@@H](N)CCCCN)CCSCC(=O)NCC[C@@H](C(=O)O)NC(=O)[C@H](CO)NC(=O)[C@H](Cc2ccccc2)NC(=O)[C@H]([C@@H](C)O)NC(=O)[C@H](CC(=O)O)NC(=O)CNC(=O)[C@H](CCCNC(=N)N)NC(=O)[C@@H]2CCCN2C1=O [Cyclic peptide 153, KKK-(Hcy)-VPRGDTFS(Dab(acetyl))] (H-KKK[hCys]VPRGDTFS[Dab]-OH; linker 4-13 via X2) | > 7.30 | A (The residual rate of the cyclic peptide is 70% or more.) | – | – | –
8 | C[C@H](NC(=O)[C@@H]1CCNC(=O)CSCC[C@H](NC(=O)[C@H](CCCCN)NC(=O)[C@H](CCCCN)NC(=O)[C@@H](N)CCCCN)C(=O)N[C@@H]([C@@H](C)O)C(=O)N2CCC[C@H]2C(=O)N[C@@H](CCCNC(=N)N)C(=O)NCC(=O)N[C@@H](CC(=O)O)C(=O)N[C@@H]([C@@H](C)O)C(=O)N[C@@H](Cc2ccccc2)C(=O)N[C@@H](C)C(=O)N1)C(=O)O [Cyclic peptide 159, KKK-(Hcy)-TPRGDTFA(Dab(acetyl))A] (H-KKK[hCys]TPRGDTFA[Dab]A-OH; linker 4-13 via X2) | > 7.30 | A (The residual rate of the cyclic peptide is 70% or more.) | – | – | –
9 | CC(C)[C@@H]1NC(=O)[C@@H](NC(=O)CNC(=O)[C@H](CCCCN)NC(=O)[C@H](CCCCN)NC(=O)[C@@H](N)CCCCN)CCSCC(=O)NCC[C@@H](C(=O)N[C@@H](C)C(=O)O)NC(=O)[C@H](C)NC(=O)[C@H](Cc2ccccc2)NC(=O)[C@H](CO)NC(=O)[C@H](CC(=O)O)NC(=O)CNC(=O)[C@H](CCCNC(=N)N)NC(=O)[C@@H]2CCCN2C1=O [Cyclic peptide 98, KKKG-(Hcy)-VPRGDSFA(Dab(acetyl))A] (H-KKKG[hCys]VPRGDSFA[Dab]A-OH; linker 5-14 via X2) | – | – | – | > 7.30 | A (The residual rate of the cyclic peptide is 70% or more.)
10 | CC[C@H](C)[C@@H]1NC(=O)[C@@H](NC(=O)[C@H](C)NC(=O)[C@H](CCCCN)NC(=O)[C@H](CCCCN)NC(=O)[C@@H](N)CCCCN)CCSCC(=O)NCC[C@@H](C(=O)N[C@@H](C)C(=O)O)NC(=O)[C@H](C)NC(=O)[C@H](Cc2ccccc2)NC(=O)[C@H](CO)NC(=O)[C@H](CC(=O)O)NC(=O)CNC(=O)[C@H](CCCNC(=N)N)NC(=O)[C@@H]2CCCN2C1=O [Cyclic peptide 92, KKKA-(Hcy)-IPRGDSFA(Dab(acetyl))A] (H-KKKA[hCys]IPRGDSFA[Dab]A-OH; linker 5-14 via X2) | – | – | – | > 7.30 | A (The residual rate of the cyclic peptide is 70% or more.)
11 | CC[C@H](C)[C@@H]1NC(=O)[C@@H](NC(=O)CNC(=O)[C@H](CCCCN)NC(=O)[C@H](CCCCN)NC(=O)[C@@H](N)CCCCN)CCCNC(=O)CSC[C@@H](C(=O)N[C@@H](C)C(=O)O)NC(=O)[C@H](CCCNC(=N)N)NC(=O)[C@H](Cc2ccccc2)NC(=O)[C@H]([C@@H](C)O)NC(=O)[C@H](CC(=O)O)NC(=O)CNC(=O)[C@H](CCCNC(=N)N)NC(=O)[C@@H]2CCCN2C1=O [Cyclic peptide 139, KKKG(Orn(acetyl))IPRGDTFR(C)A] (H-KKKG[Orn]IPRGDTFRCA-OH; linker 5-14 via X1) | > 7.30 | C (The residual rate of the cyclic peptide is 30% or more and less than 50%.) | – | – | –
12 | CC(C)[C@@H]1NC(=O)[C@@H](NC(=O)[C@H](C)N)CCSCC(=O)NCC[C@@H](C(=O)N[C@@H](C)C(=O)N[C@@H](CCCCN)C(=O)N[C@@H](CCCCN)C(=O)N[C@@H](CCCCN)C(=O)O)NC(=O)[C@H](C)NC(=O)[C@H](Cc2ccccc2)NC(=O)[C@H]([C@@H](C)O)NC(=O)[C@H](CC(=O)O)NC(=O)CNC(=O)[C@H](CCCNC(=N)N)NC(=O)[C@@H]2CCCN2C1=O [Cyclic peptide 109, A-(Hcy)-VPRGDTFA(Dab(acetyl))AKKK] (H-A[hCys]VPRGDTFA[Dab]AKKK-OH; linker 2-11 via X2) | > 7.30 | A (The residual rate of the cyclic peptide is 70% or more.) | – | – | –
13 | CC[C@H](C)[C@@H]1NC(=O)[C@@H](NC(=O)[C@H](CCCCN)NC(=O)[C@H](CCCCN)NC(=O)[C@@H](N)CCCCN)CCSCC(=O)NCC[C@@H](C(=O)N[C@@H](CC(=O)O)C(=O)O)NC(=O)[C@H](CCCNC(=N)N)NC(=O)[C@H](Cc2ccccc2)NC(=O)[C@H](CC(N)=O)NC(=O)[C@H](CC(=O)O)NC(=O)CNC(=O)[C@H](CCCNC(=N)N)NC(=O)[C@@H]2CCCN2C1=O [Cyclic peptide 5, KKK-(Hcy)-IPRGDNFR(Dab(acetyl))D] (H-KKK[hCys]IPRGDNFR[Dab]D-OH; linker 4-13 via X2) | – | – | – | > 7.30 | A (The residual rate of the cyclic peptide is 70% or more.)
